Experimental data: patent US4167568A, “8-Azapurin-6-one derivatives” (May & Baker Limited, priority 1976, dated 1979)

Assays:
[1] = Acute intravenous toxicity in mice; settings: mouse, in vivo, triethanolamine salt, aqueous solution, observed 7 days
Experimental: T.2. Acute intravenous toxicity in mice
Mice were each treated intravenously with an aqueous solution of the triethanolamine salt of one of the compounds of formula IV, and they were observed during the next 7 days. The LD50 figures obtained (doses lethal to 50% of mice tested) are shown below in Table III, expressed in mg/kg animal body weight.
The aqueous solutions used were prepared as follows:- A mixture of the test compound and water was treated gradually with triethanolamine until complete solution occurred. The solution was then diluted with water to a concentration of either 1% w/v or 2% w/v. Various volumes of these solutions were then administered to the mice.

[2] = system: passive cutaneous anaphylactic reaction; test: Passive cutaneous anaphylactic reaction test in rats (intravenous); format: in vivo; settings: relative to reference compound RCA (= 1)
From the text: A.1. Passive cutaneous anaphylactic reaction test in rats (intravenous)

[3] = system: passive cutaneous anaphylactic reaction; test: Passive cutaneous anaphylactic reaction test in rats (oral); format: in vivo; settings: for oral activity relative to reference compounds RCB and RCC: times as active as RCB and RCC
From the text: A.2. Passive cutaneous anaphylactic reaction test in rats (oral)

[4] = Acute oral toxicity in mice; settings: mouse, in vivo, observed 3 days
From the text: T.1. Acute oral toxicity in mice
Mice were each treated orally with one of the compounds of formula IV, and they were observed during the next 3 days. The LD50 figures obtained (doses lethal to 50% of mice tested) are shown in Table II, expressed in mg/kg animal body weight.

beagle dogs = test: Emetic activity in dogs; format: in vivo; settings: four beagle dogs, oral gelatine capsules, observed at least 2.5 hours
From the text: The emetic activity in dogs of test compound A was compared with that of the reference compound RCA.
Four beagle dogs, each of approximately 12 kg body weight, were starved overnight and then were given orally gelatine capsules containing either test compound A or RCA.
The same four animals were used to test both compounds.

Compound | Relative Activity [2] | other results
CCCOc1ccc(NC=C(C(C)=O)C(=O)OCC)cc1-c1nc2[nH]nnc2c(=O)[nH]1 [D, 2-[5-(2-acetyl-2-ethoxycarbonylvinylamino)-2-propoxyphenyl]-8-azapurin-6-one] | 10 | LD50 at 168 h ([1]; test solution 2% w/v): 270 mg/kg
CCCOc1ccc(C(N)=O)cc1-c1nc2[nH]nnc2c(=O)[nH]1 [Compound M, 2-(5-carbamoyl-2-propoxyphenyl)-8-azapurin-6-one] | 10 | –
CCCOc1ccc(C(=O)N(C)C(C)C)cc1-c1nc2[nH]nnc2c(=O)[nH]1 [W, 2-(5-N-methyl-N-isopropylcarbamoyl-2-propoxyphenyl)-8-azapurin-6-one] | 5 | –
CCCOc1ccc(NC(=S)NC)cc1-c1nc2[nH]nnc2c(=O)[nH]1 [Compound Q, 2-[5-(3-methyl-2-thioureido)-2-propoxyphenyl]-8-azapurin-6-one] | 10 | –
CCCOc1ccc(NC=C(C#N)C(=O)OCC)cc1-c1nc2[nH]nnc2c(=O)[nH]1 [C, 2-[5-(2-cyano-2-ethoxycarbonylvinylamino)-2-propoxyphenyl]-8-azapurin-6-one] | 10 | LD50 at 168 h ([1]; test solution 2% w/v): 290 mg/kg; oral activity relative to reference compounds RCB and RCC [3]: over 2.5 times
CCCOc1ccc(C(=O)N(CC)CC)cc1-c1nc2[nH]nnc2c(=O)[nH]1 [Compound V, 2-(5-N,N-diethylcarbamoyl-2-propoxyphenyl)-8-azapurin-6-one] | 3 | –
CCCOc1ccc(NC=C(C(C)=O)C(C)=O)cc1-c1nc2[nH]nnc2c(=O)[nH]1 [Compound B, 2-[5-(2,2-diacetylvinylamino)-2-propoxyphenyl]-8-azapurin-6-one] | 50 | LD50 at 168 h ([1]; test solution 1% w/v): 350 mg/kg
CCCOc1ccc(NC(=O)NC(C)C)cc1-c1nc2[nH]nnc2c(=O)[nH]1 [Compound O, 2-[2-propoxy-5-(3-isopropylureido)phenyl]-8-azapurin-6-one] | 30 | LD50 at 72 h [4]: > 1000 mg/kg
CCCOc1ccc(N=NC(C(=O)OCC)C(=O)OCC)cc1-c1nc2[nH]nnc2c(=O)[nH]1 [K, 2-[5-{bis(ethoxycarbonyl)methylazo}-2-propoxyphenyl]-8-azapurin-6-one] | 2.5 | LD50 at 168 h ([1]; test solution 2% w/v): 255 mg/kg
CCCOc1ccccc1-c1nc2nn[nH]c2c(=O)[nH]1 [RCA, 2-(2-propoxyphenyl)-8-azapurin-6-one, reference compound] | 1 | vomiting (emetic activity) (beagle dogs; 100 mg/kg): caused vomiting in all four dogs
CCCOc1ccc(S(=O)(=O)CCC)cc1-c1nc2[nH]nnc2c(=O)[nH]1 [RCC, 2-(2-propoxy-5-propylsulphonylphenyl)-8-azapurin-6-one, reference compound] | – | oral activity of RCB and RCC compared with each other [3]: approximately equiactive orally
CCCOc1ccc(C#N)cc1-c1nc2[nH]nnc2c(=O)[nH]1 [Compound L, 2-(5-cyano-2-propoxyphenyl)-8-azapurin-6-one] | 1 | –
CCCOc1ccc(NC(N)=O)cc1-c1nc2[nH]nnc2c(=O)[nH]1 [Compound S, 2-(2-propoxy-5-ureidophenyl)-8-azapurin-6-one] | 5 | –
CCCOc1ccc(C(=O)NC(C)(C)C)cc1-c1nc2[nH]nnc2c(=O)[nH]1 [Compound N, 2-(5-N-t-butylcarbamoyl-2-propoxyphenyl)-8-azapurin-6-one] | 50 | LD50 at 72 h [4]: > 1000 mg/kg
CCCOc1ccc(NC=C(C(=O)OC)C(=O)OC)cc1-c1nc2[nH]nnc2c(=O)[nH]1 [Compound G, 2-[5-{2,2-bis(methoxycarbonyl)vinylamino}-2-propoxyphenyl]-8-azapurin-6-one] | 50 | LD50 at 168 h ([1]; test solution 2% w/v): 280 mg/kg
CCCOc1ccc(S(=O)(=O)N(C)C(C)C)cc1-c1nc2[nH]nnc2c(=O)[nH]1 [RCB, 2-[2-propoxy-5-(N-methyl-N-isopropylsulphamoyl)-phenyl]-8-azapurin-6-one, reference compound] | – | oral activity of RCB and RCC compared with each other [3]: approximately equiactive orally
CCCNC(=S)Nc1ccc(OCCC)c(-c2nc3[nH]nnc3c(=O)[nH]2)c1 [Compound R, 2-[2-propoxy-5-(3-propyl-2-thioureido)phenyl]-8-azapurin-6-one] | 0.2 | LD50 at 72 h [4]: > 1000 mg/kg
CCCOc1ccc(NC=C(C(=O)OCC)C(=O)OCC)cc1-c1nc2[nH]nnc2c(=O)[nH]1 [Compound A, 2-[5-{2,2-bis(ethoxycarbonyl)vinylamino}-2-propoxyphenyl]-8-azapurin-6-one] | 5 | vomiting (emetic activity) (beagle dogs; 200 mg/kg): caused vomiting in none of the four dogs; oral activity relative to reference compounds RCB and RCC [3]: over 5 times
CCCOc1ccc(-c2nnn[nH]2)cc1-c1nc2[nH]nnc2c(=O)[nH]1 [Compound T, 2-[2-propoxy-5-(tetrazol-5-yl)phenyl]-8-azapurin-6-one] | 2 | –
CCCOc1ccc(N=NC(C(C)=O)C(C)=O)cc1-c1nc2[nH]nnc2c(=O)[nH]1 [J, 2-[5-(2,4-dioxopent-3-ylazo)-2-propoxyphenyl]-8-azapurin-6-one] | 10 | LD50 at 72 h [4]: > 1000 mg/kg
COc1ccc(NC=C(C(C)=O)C(C)=O)cc1-c1nc2[nH]nnc2c(=O)[nH]1 [F, 2-[5-(2,2-diacetylvinylamino)-2-methoxyphenyl]-8-azapurin-6-one] | 5 | –
CCCNC(=O)Nc1ccc(OCCC)c(-c2nc3[nH]nnc3c(=O)[nH]2)c1 [Compound P, 2-[2-propoxy-5-(3-propylureido)phenyl]-8-azapurin-6-one] | 2 | –
CCOC(=O)C(=CNc1ccc(OC)c(-c2nc3[nH]nnc3c(=O)[nH]2)c1)C(=O)OCC [Compound E, 2-[5-{2,2-bis(ethoxycarbonyl)vinylamino}-2-methoxyphenyl]-8-azapurin-6-one] | 5 | LD50 at 168 h ([1]; test solution 1% w/v): 320 mg/kg; LD50 at 72 h [4]: > 1000 mg/kg
CCCOc1ccc(NC2=C(C(=O)OCC)CCC2)cc1-c1nc2[nH]nnc2c(=O)[nH]1 [Compound U, 2-[5-(2-ethoxycarbonylcyclopent-1-enylamino)-2-propoxyphenyl]-8-azapurin-6-one] | 5 | LD50 at 168 h ([1]; test solution 2% w/v): 220 mg/kg
COc1ccc(NC(C)=CC(C)=O)cc1-c1nc2[nH]nnc2c(=O)[nH]1 [Compound I, 2-[5-(1-acetylprop-1-en-2-ylamino)-2-methoxyphenyl]-8-azapurin-6-one] | 5 | LD50 at 168 h ([1]; test solution 1% w/v): 470 mg/kg
CCCOc1ccc(N/C(=C\C(=O)OC)C(=O)OC)cc1-c1nc2[nH]nnc2c(=O)[nH]1 [Compound H, (Z)-2-[5-{1,2-bis(methoxycarbonyl)vinylamino}-2-propoxyphenyl]-8-azapurin-6-one] | 15 | LD50 at 168 h ([1]; test solution 2% w/v): 410 mg/kg
